The source of these data is patent US20090275667A1, “USE OF ALLICIN AS PRESERVATIVE, AS DISINFECTANT, AS ANTIMICROBIAL OR AS BIOCIDAL AGENT” (Stone Island Holdings Ltd, priority 2003, published 2009).

One assay concerns B. laterosporus. Put plainly: Investigation into bacteriostatic or bactericidal effects (Study 2). The assay is classed as cell-based, Brevibacillus laterosporus. To be noted: conclusion from subculture into fresh media. How it is done:
Where there was no growth in a replicate, at the end of one week the culture was plated out for single colonies on the appropriate agar. This was to determine whether the test item had bactericidal activity, where all the bacterial cells are killed, or bacteriostatic action, where the cells are unable to replicate in the presence of the substance, but will grow when it is removed. A further test, where 0.5 ml of the broth was transferred into 4.5 ml fresh broth (giving a 1:10 dilution) was also undertaken. There would still be some Allicin in the broth, but it should be present at a low enough concentration for growth not to be affected. Where growth occurred in the absence of Allicin, the broth was examined microscopically and plated out for single colonies to confirm the identity of the bacterium.

The test system of assay [1] is GISA strain isolated from the UK mortality. Briefly: Standard agar diffusion test against a GISA strain. The class given is cell-based, Staphylococcus aureus. From the text: Allicin in a liquid form has been tested against the GISA strain isolated from the UK mortality. In a standard agar diffusion test the strain produced a zone of 37 mm at 500 ppm (FIG. 2) and 30 mm at 300 ppm.

The subject of a further assay is chickens. Put plainly: In vivo trial of allicin in the drinking water of chickens, two sheds. The procedure:
An in vivo trial has also been conducted in which two adjacent sheds each of 10,000 chickens were compared. Each shed was supplied with 1000 litres of water per day. For 7 days, the water for one shed had 1.5 litres of allicin solution (1000 ppm) added to the water supply, with 1 litre of allicin solution (1000 ppm) being added per day for a further 3 days. In the control shed, no allicin solution was added.
After just a few days, an improvement in the appearance of the health of the chickens in the allicin-treated shed was noted. For example, the combs of the chickens appeared redder and there was an increase of 2 percent in egg production. The vitality of the chickens improved. In contrast, in the control barn, E. coli infection was observed. Following completion of the trial, the livers of several of the birds were examined.

A further assay relates to Melissococcus plutonius. Briefly: Inhibition of bacterial growth in broth by Allicin (Study 2). The class given is cell-based. Details: key: +: Growth present; +^a: weak growth seen, occurred later than lower concentrations. To be noted: 34° C. The procedure: (§1) Allicin liquid (nominal concentration=1000 ppm. ai) was obtained from Allicin International Ltd and kept refrigerated.
(§2) The bacteria tested were Paenibacillus larvae subsp. larvae, Melissococcus plutonium, Brevibacillus laterosporus and Paenibacillus alvei. All isolates were freshly isolated from diseased material sent to the NBU diagnostic laboratory.
(§3) P. larvae subsp. larvae, B. laterosporus and P. alvei were grown on brain heart infusion plus thiamine (BHIT) agar and broth (SOP NBU/014) under aerobic conditions and M. plutonius was grown on SYPG agar and broth (SOP NBU/015) under anaerobic conditions. All experiments were carried out at 34° C. The concentrations of Allicin liquid investigated were 500, 250, 100, 50, 25 and 10 ppm. Broth was made up at twice the usual concentration, so that when the Allicin-containing component was added, the medium was at the correct strength for bacterial growth. Allicin solution was diluted in sterile deionised water to give the desired concentration when added to autoclaved broth. […] Further controls were included, which were the media plus an appropriate volume of Allicin, but not inoculated with bacteria. This would indicate if there were any bacteria present in the test item that may influence the results seen. Both aerobic and anaerobic controls were included.
(§4) Bacteria were isolated from diseased samples and subcultured on agar plates until pure, when they were inoculated into broth cultures. Cultures of M. plutonius were isolated anaerobically, then plated out and incubated both aerobically and anaerobically, to confirm that the isolate investigated was this bacterium. A similar microbe, Enterococcus faecalis, can sometimes be isolated from EFB-infected samples and is morphologically difficult to distinguish from M. plutonius. However, the former bacterium grows very well aerobically, whereas M. plutonius is unable to replicate. Thus, if an isolate is able to grow aerobically, it is not M. plutonius. This control mechanism was used throughout the experimental procedures to ensure that the correct organism was tested.
(§5) Each bacterium was freshly grown in a test tube containing 5 ml broth. A loopful (5 μl) of this bacterial suspension was removed from the culture and inoculated into each test tube according to SOP NBU/131. The same inoculum source for each strain was used for all Allicin dilutions, and all experiments were done in triplicate.
(§6) Where growth occurred in the presence of Allicin, one replicate from each concentration for each bacterium was plated out on the appropriate agar to identify the bacteria that had grown in the broth, to confirm the results (SOP NBU/131). Once growth was evident on this confirmation plate, the culture was assessed with respect to the colony morphology and Gram stained (according to SOP NBU/111) as a further confirmatory test. This is a suitable method as each bacterium tested has distinctive morphology both macro- and microscopically.

In assay [2] the test system is Brevibacillus laterosporus. The description is as above. The assay is classed as cell-based. On the set-up: key: +: Growth present; +^a: weak growth seen, occurred later than lower concentrations. The conditions noted are these: 34° C. The procedure:
as §1, §2, §3, §4, §5, §6

The subject of another assay is Paenibacillus alvei. The assay is described as above. The class given is cell-based. Details: key: +: Growth present; +^a: weak growth seen, occurred later than lower concentrations. To be noted: 34° C. The procedure: as §1, §2, §3, §4, §5, §6
For assay [3], the system named is Paenibacillus larvae subsp. larvae. The assay is described as above. The class given is cell-based. Details: key: +: Growth present; +^a: weak growth seen, occurred later than lower concentrations. The conditions noted are these: 34° C. The procedure: as §1, §2, §3, §4, §5, §6

Consider `C=CCS[S+]([O-])CC=C` (stereo not drawn) [allicin, Allicin], for which, in the assay with B. laterosporus, the “bacteriostatic or bactericidal effect” value is recorded as “did not kill all bacteria”. The compound also displayed a zone of inhibition at 300 ppm in assay [1] (Staphylococcus aureus, 300 ppm, allicin in a liquid form) of 30 mm. This compound also gave a zone of inhibition at 500 ppm in assay [1] (Staphylococcus aureus, 500 ppm, allicin in a liquid form) of 37 mm. In addition, in assay [1] (recommended doses for topical use), the “susceptibility of the GISA strain” value is on record as “fully susceptible”. For the same compound, in the assay with chickens (allicin solution (1000 ppm) 1.5 litres/day in 1000 litres water for 7 days, then 1 litre/day for 3 days, vs control shed), the “increase in egg production” value is 2%. For the same compound, the “resistance to chicken bloodlice” value in the assay with chickens (allicin-treated shed vs control shed) is “improved resistance”. Besides, in the assay on chickens (livers examined after completion of the trial, vs control chickens), the “evidence of E. coli infection in livers” value was “did not”. Moreover, the “Growth present at test item concentration” value (“Growth present” for short) in the assay on Melissococcus plutonius (10 ppm) is recorded as “+”; in the assay with Melissococcus plutonius (25 ppm), “+”; in the assay with Melissococcus plutonius (50 ppm), “+”; in the assay on Melissococcus plutonius (100 ppm) it was “+^a”; in assay [2] (10 ppm), “+”; in assay [2] (25 ppm) it was “+”. Moreover, the “Growth present” value is recorded as “+” in assay [2] (50 ppm); “+^a” in assay [2] (100 ppm); “+” in the assay with Paenibacillus alvei (10 ppm); “+” with Paenibacillus alvei (25 ppm); “+” with Paenibacillus alvei (50 ppm); “+^a” in the assay with Paenibacillus alvei (100 ppm). Further, the “Growth present” value in assay [3] (10 ppm) was “+”; in assay [3] (25 ppm), “+^a”.

As usually defined, the zone of inhibition is the size of the clear area around the sample on an inoculated plate.
